In patent US11608323B2 (SYNGENTA LIMITED, priority 2013, dated 2023):

How the values were obtained:
Assay type in all cases: in vivo
[1] = system: ECHCG; assay: Post-emergence herbicidal activity, glasshouse pot test; settings: Echinochloa crus-galli; application post-emergence; rate 1000 g/Ha; evaluated after 13 days
Summary of the method: (§1)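 Pot-grown seedlings sprayed 8 days after sowing with active ingredient in acetone/water (50:50) plus 0.5% Tween 20. Glasshouse at 24/16 °C day/night, 14 h light, 65% humidity, watered twice daily. Damage scored after 13 days on a 0–5 scale (5 = total damage, 0 = none).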

[2] = system: ALOMY; assay: as above; settings: Alopecurus myosuroides; application post-emergence; rate 1000 g/Ha; evaluated after 13 days
Summary of the method: as §1

[3] = system: ABUTH; assay: as above; settings: Abutilon theophrasti; application post-emergence; rate 1000 g/Ha; evaluated after 13 days
Summary of the method: as §1

[4] = system: AMARE; assay: as above; settings: Amaranthus retroflexus; application post-emergence; rate 1000 g/Ha; evaluated after 13 days
Summary of the method: as §1

[5] = system: ZEAMX; assay: as above; settings: Zea mays; application post-emergence; rate 1000 g/Ha; evaluated after 13 days
Summary of the method: as §1

[6] = system: SETFA; assay: as above; settings: Setaria faberi; application post-emergence; rate 1000 g/Ha; evaluated after 13 days
Summary of the method: as §1

[7] = system: ECHCG; assay: Pre-emergence herbicidal activity, glasshouse pot test; settings: rate 1000 g/Ha, evaluated after 13 days, scale 0-5
Summary of the method: (§2)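 Damage was rated 13 days after treatment on a 0–5 scale (0 = no damage, 5 = total damage). Pots of seeds in standard soil were sprayed one day after sowing with an aqueous solution from an acetone/water (50:50), 0.5% Tween 20 formulation and kept at 24/16 °C day/night.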

[8] = system: ALOMY; assay: as above; settings: rate 1000 g/Ha, evaluated after 13 days, scale 0-5
Summary of the method: as §2

[9] = system: ABUTH; assay: as above; settings: rate 1000 g/Ha, evaluated after 13 days, scale 0-5
Summary of the method: as §2

[10] = system: AMARE; assay: as above; settings: rate 1000 g/Ha, evaluated after 13 days, scale 0-5
Summary of the method: as §2

[11] = system: ZEAMX; assay: as above; settings: rate 1000 g/Ha, evaluated after 13 days, scale 0-5
Summary of the method: as §2

[12] = system: SETFA; assay: as above; settings: rate 1000 g/Ha, evaluated after 13 days, scale 0-5
Summary of the method: as §2

Row | Structure (SMILES) | Post-emergence herbicidal activity ECHCG (damage score 0-5) [1] | Post-emergence herbicidal activity ALOMY (damage score 0-5) [2] | Post-emergence herbicidal activity ABUTH (damage score 0-5) [3] | Post-emergence herbicidal activity AMARE (damage score 0-5) [4] | Post-emergence herbicidal activity ZEAMX (damage score 0-5) [5] | Post-emergence herbicidal activity SETFA (damage score 0-5) [6] | ECHCG damage score, application pre-emergence [7] | ALOMY damage score, application pre-emergence [8] | ABUTH damage score, application pre-emergence [9] | AMARE damage score, application pre-emergence [10] | ZEAMX damage score, application pre-emergence [11] | SETFA damage score, application pre-emergence [12]
1 | CON1CC(O)N(c2cc(C(F)(F)F)ccn2)C1=O (stereo not drawn) [Compound A36] | 5 | 4 | 1 | 5 | 2 | 3 | 4 | 2 | 1 | 5 | 0 | 2
2 | CN1C(=O)N(c2cc(C(F)(F)F)ccn2)C(O)C1OCC(F)(F)F (stereo not drawn) [Compound A39] | 5 | 5 | 5 | 5 | 1 | 5 | 3 | 4 | 5 | 5 | 1 | 2
3 | CC1NC(=O)N(c2cc(C(F)(F)F)ccn2)C1O (stereo not drawn) [Compound A40] | 4 | 4 | 5 | 5 | 1 | 3 | 3 | 2 | 4 | 5 | 2 | 2
4 | C=CCOC1C(O)N(c2cc(C(F)(F)F)ccn2)C(=O)N1C (stereo not drawn) [Compound A41] | 2 | 4 | 5 | 5 | 2 | 4 | 2 | 1 | 5 | 5 | 1 | 2
5 | COC(OC)C1C(O)N(c2cc(C(F)(F)F)ccn2)C(=O)N1C (stereo not drawn) [Compound A42] | 0 | 2 | 4 | 4 | 1 | 2 | 0 | 0 | 1 | 4 | 0 | 3
6 | CN1C(=O)N(c2cc(C(F)(F)F)ccn2)C(O)C1CO (stereo not drawn) [Compound A43] | 5 | 1 | 5 | 1 | 2 | 0 | 1 | 1 | 5 | 2 | 0 | 2
7 | C#CCOC1C(O)N(c2cc(C(F)(F)F)ccn2)C(=O)N1C (stereo not drawn) [Compound A44] | 5 | 4 | 5 | 5 | 4 | 5 | 5 | 4 | 5 | 5 | 2 | 4
8 | COCCOC1C(O)N(c2cc(C(F)(F)F)ccn2)C(=O)N1C (stereo not drawn) [Compound A45] | 3 | 2 | 5 | 5 | 1 | 3 | 3 | 2 | 5 | 5 | 1 | 3
9 | O=C1N(c2cc(C(F)(F)F)ccn2)C(O)[C@@H]2CCCN12 (stereo partly drawn) [Compound A46] | 5 | 5 | 5 | 5 | 3 | 5 | 4 | 4 | 5 | 5 | 3 | 2
10 | O=C1N(c2cc(C(F)(F)F)ccn2)C(O)[C@H]2CCCN12 (stereo partly drawn) [Compound A47] | 5 | 5 | 5 | 5 | 4 | 5 | 5 | 4 | 5 | 5 | 2 | 4
11 | CC(C)OC1C(O)N(c2cc(C(F)(F)F)ccn2)C(=O)N1C (stereo not drawn) [Compound A48] | 4 | 4 | 5 | 5 | 1 | 4 | 1 | 4 | 5 | 5 | 1 | 3
